Reference: the NIST ThermoML archive (doi:10.1007/s10765-006-0056-z)

Assay: molar heat capacity at constant volume; xn = mol fraction of the nth substance listed

CCCCCCCCCC [decane] + O=C=O
Details | molar heat capacity at constant volume [J/K/mol]
443.07 K, Fluid (supercritical or subcritical phases), Mass density=374.7 kg/m3, Isochoric Heat Capacity Apparatus, x1 = 0.095 | 344.18
443.68 K, Fluid (supercritical or subcritical phases), Mass density=374.7 kg/m3, Isochoric Heat Capacity Apparatus, x1 = 0.095 | 343.49
444.49 K, Fluid (supercritical or subcritical phases), Mass density=374.7 kg/m3, Isochoric Heat Capacity Apparatus, x1 = 0.095 | 342.85
447.32 K, Fluid (supercritical or subcritical phases), Mass density=457.5 kg/m3, Isochoric Heat Capacity Apparatus, x1 = 0.178 | 485.87
447.32 K, Liquid, iso, x1 = 0.178 | 568.28
447.95 K, Fluid (supercritical or subcritical phases), Mass density=457.5 kg/m3, Isochoric Heat Capacity Apparatus, x1 = 0.178 | 478.12
448.27 K, Fluid (supercritical or subcritical phases), Mass density=457.5 kg/m3, Isochoric Heat Capacity Apparatus, x1 = 0.178 | 482.3
448.55 K, Fluid (supercritical or subcritical phases), Mass density=457.5 kg/m3, Isochoric Heat Capacity Apparatus, x1 = 0.178 | 479.96
449.12 K, Fluid (supercritical or subcritical phases), Mass density=398.3 kg/m3, Isochoric Heat Capacity Apparatus, x1 = 0.095 | 331.01
451.39 K, Fluid (supercritical or subcritical phases), Mass density=201.8 kg/m3, Isochoric Heat Capacity Apparatus, x1 = 0.178 | 488.2
451.39 K, Liquid, iso, x1 = 0.178 | 574.18
452.33 K, Fluid (supercritical or subcritical phases), Mass density=457.5 kg/m3, Isochoric Heat Capacity Apparatus, x1 = 0.178 | 465.26
452.33 K, Fluid (supercritical or subcritical phases), Mass density=509.4 kg/m3, Isochoric Heat Capacity Apparatus, x1 = 0.095 | 318.95
453.23 K, Fluid (supercritical or subcritical phases), Mass density=457.5 kg/m3, Isochoric Heat Capacity Apparatus, x1 = 0.178 | 462.99
457.12 K, Fluid (supercritical or subcritical phases), Mass density=374.7 kg/m3, Isochoric Heat Capacity Apparatus, x1 = 0.095 | 340.82
457.77 K, Liquid, iso, x1 = 0.178 | 595.83
459 K, Fluid (supercritical or subcritical phases), Mass density=477.6 kg/m3, Isochoric Heat Capacity Apparatus, x1 = 0.095 | 323.65
460.15 K, Liquid, iso, x1 = 0.178 | 606.1
460.39 K, Fluid (supercritical or subcritical phases), Mass density=320.2 kg/m3, Isochoric Heat Capacity Apparatus, x1 = 0.095 | 354.21
460.69 K, Fluid (supercritical or subcritical phases), Mass density=320.2 kg/m3, Isochoric Heat Capacity Apparatus, x1 = 0.095 | 351.33
460.89 K, Fluid (supercritical or subcritical phases), Mass density=320.2 kg/m3, Isochoric Heat Capacity Apparatus, x1 = 0.095 | 350
463.26 K, Fluid (supercritical or subcritical phases), Mass density=87 kg/m3, Isochoric Heat Capacity Apparatus, x1 = 0.095 | 712.69
463.26 K, Fluid (supercritical or subcritical phases), Mass density=398.3 kg/m3, Isochoric Heat Capacity Apparatus, x1 = 0.095 | 334.16
463.45 K, Fluid (supercritical or subcritical phases), Mass density=457.5 kg/m3, Isochoric Heat Capacity Apparatus, x1 = 0.178 | 459.11
463.65 K, Fluid (supercritical or subcritical phases), Mass density=87 kg/m3, Isochoric Heat Capacity Apparatus, x1 = 0.095 | 685.49
463.85 K, Fluid (supercritical or subcritical phases), Mass density=87 kg/m3, Isochoric Heat Capacity Apparatus, x1 = 0.095 | 688.16
464.05 K, Fluid (supercritical or subcritical phases), Mass density=87 kg/m3, Isochoric Heat Capacity Apparatus, x1 = 0.095 | 691.36
465.43 K, Fluid (supercritical or subcritical phases), Mass density=87 kg/m3, Isochoric Heat Capacity Apparatus, x1 = 0.095 | 690.82
466.3 K, Fluid (supercritical or subcritical phases), Mass density=408.8 kg/m3, Isochoric Heat Capacity Apparatus, x1 = 0.178 | 493.61
467.05 K, Fluid (supercritical or subcritical phases), Mass density=408.8 kg/m3, Isochoric Heat Capacity Apparatus, x1 = 0.178 | 490.54
